The target in one series is T1, human EAAT3 (Homo sapiens, UniProt P43005).
T1 construct: expressed in transfected cells; host or cells: HEK-293
T1 sequence (P43005 1-524): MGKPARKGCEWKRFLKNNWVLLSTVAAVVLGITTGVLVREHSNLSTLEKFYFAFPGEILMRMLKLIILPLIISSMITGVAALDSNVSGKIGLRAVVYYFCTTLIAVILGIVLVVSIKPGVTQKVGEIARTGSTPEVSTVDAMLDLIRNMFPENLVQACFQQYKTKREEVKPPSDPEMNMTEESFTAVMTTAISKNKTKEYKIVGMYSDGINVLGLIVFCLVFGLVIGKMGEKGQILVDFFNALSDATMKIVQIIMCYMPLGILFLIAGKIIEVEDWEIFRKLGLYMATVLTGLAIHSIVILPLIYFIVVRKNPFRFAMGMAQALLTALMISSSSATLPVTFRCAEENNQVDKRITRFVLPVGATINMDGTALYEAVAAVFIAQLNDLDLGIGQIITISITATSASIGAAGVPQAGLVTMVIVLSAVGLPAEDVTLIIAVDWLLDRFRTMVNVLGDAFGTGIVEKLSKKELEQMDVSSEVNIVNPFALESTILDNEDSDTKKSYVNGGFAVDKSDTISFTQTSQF
Nature of the series: FLIPR Membrane Potential (FMP) assay. It counts as cell-based. As to conditions: HEK-293 cells stably expressing human EAAT3; L-glutamate as agonist at EC80; antagonist applied 15 min before; Kb by Cheng-Prusoff from IC50. The procedure:
The FLIPR Membrane Potential (FMP) assay
HEK-293 cells stably expressing human EAAT3 were seeded at 55 000 cells/well in growth medium (DMEM glutamate free (Invitrogen 11960-044), 1% Pen Strep (10 ml/l GIBCO BRL N^o 15140-023), 10% FCS non dialysed heat inactivated, 5 mg/l puromycin) in poly-D-lysine treated 96-well black microtiter plates with clear-bottom. After 24 h, the growth medium was removed and 100 μl/well of Krebs buffer (140 mM NaCl, 4.7 mM KCl, 2.5 mM CaCl2), 1.2 mM MgCl2, 11 mM HEPES, 10 mM D-glucose, pH=7.4) added. The cells were then loaded by adding 100 μl/well FMP assay dye (FLIPR Membrane Potential assay reagent, Molecular Devices). The 96-well plates were then incubated at 37° C. for 1 h. The depolarization of the cells will cause more dye to enter in the cells, where it will bind to intracellular proteins and lipids and cause an increase in the fluorescence signal. Antagonist potency at human EAAT3 was determined by using L-glutamate as agonist at a concentration which gives 80% of the maximum response. The antagonists were applied 15 min before the application of the agonist L-glutamate. The assays were performed at room temperature and measurements done by using a Fluorometric Imaging Plate Reader (FLIPR, Molecular Devices) and filter #2. Responses were measured as peak increase in fluorescence minus basal (i.e. fluorescence without addition of L-glutamate). Kb was determined using the Cheng-Prusoff equation Kb=IC50/[1+(A/EC50)], where IC50 is the concentration of the antagonist producing 50% inhibition, A is the concentration of the agonist against which the IC50 is being determined (at EC80) and EC50 is the concentration of the agonist producing 50% […].

Structures are written as SMILES.

In turn, `CC(C)(C)NC(=O)c1cc(-c2ccc(C(F)(F)F)cc2)nc(-c2ccnn2C(C)(C)C)c1` [Example 5, N-tert-Butyl-2-(2-tert-butyl-pyrazol-3-yl)-6-[4-(trifluoromethyl)-phenyl]-pyridine-4-carboxamide] yielded a melting point of 222 °C. This compound had a Kb at human EAAT3 of 290 nM.

For `Cc1ccc(-c2cc(C(=O)NC(C)(C)C)cc(-c3ccnn3C(C)(C)C)n2)cc1F` [Example 26, N-tert-Butyl-2-(2-tert-butyl-pyrazol-3-yl)-6-(3-fluoro-4-methyl-phenyl)-pyridine-4-carboxamide], the melting point came out at 207 °C. On human EAAT3, this compound yielded a Kb of 89 nM.

Compound `CC(C)(C)NC(=O)c1cc(-c2ccc(C(F)(F)F)cc2)nc(-c2ccnn2CC2CC2)c1` [Example 42, N-tert-Butyl-2-[2-(cyclopropylmethyl)-pyrazol-3-yl]-6-[4-(trifluoromethyl)-phenyl]-pyridine-4-carboxamide] yielded a melting point of 203 °C. The same compound yielded a Kb on human EAAT3 of 380 nM.

In the case of `CCn1nccc1-c1cc(C(=O)NC(C)(C)C)cc(-c2ccc(C(F)(F)F)cc2)n1` [Example 41, N-tert-Butyl-2-(2-ethyl-pyrazol-3-yl)-6-[4-(trifluoromethyl)-phenyl]-pyridine-4-carboxamide], the melting point was 186 °C. The same compound came in with a Kb on human EAAT3 of 750 nM.

Regarding `CC(C)(NC(=O)c1cc(-c2ccc(Cl)cc2)nc(-c2ccnn2C(C)(C)C)c1)C1CC1` [Example 53, 2-(2-tert-Butyl-pyrazol-3-yl)-6-(4-chlorophenyl)-N-(2-cyclopropyl-propan-2-yl)-pyridine-4-carboxamide], the melting point stood at 161 °C. The same compound gave a Kb at human EAAT3 of 860 nM.

In the case of `CC(C)n1nccc1-c1cc(C(=O)NC(C)(C)C(F)(F)F)cc(-c2ccc(Cl)cc2)n1` [Example 50, 2-(4-Chlorophenyl)-6-(2-propan-2-yl-pyrazol-3-yl)-N-(1,1,1-trifluoro-2-methylpropan-2-yl)-pyridine-4-carboxamide], the melting point was found to be 177 °C. This compound also showed a Kb at human EAAT3 of 1430 nM.

In turn, `CC(C)n1nccc1-c1cc(C(=O)NC(C)(C)CO)cc(-c2ccc(F)cc2)n1` [Example 47, 2-(4-Fluorophenyl)-N-(1-hydroxy-2-methyl-propan-2-yl)-6-(2-propan-2-yl-pyrazol-3-yl)-pyridine-4-carboxamide] showed a melting point of 180 °C. On human EAAT3, the Kb was determined as 310 nM.

Compound `CC(C)(C)NC(=O)c1cc(-c2ccc(F)cc2)nc(-c2ccnn2C(C)(C)C)c1` [Example 3, N-tert-Butyl-2-(2-tert-butyl-pyrazol-3-yl)-6-(4-fluorophenyl)-pyridine-4-carboxamide] gave a melting point of 226 °C. This compound came in with a Kb on human EAAT3 of 65 nM.

`CC(C)n1nccc1-c1cc(C(=O)NC(C)(C)C2CC2)cc(-c2ccc(Cl)cc2)n1` [Example 49, 2-(4-Chlorophenyl)-N-(2-cyclopropyl-propan-2-yl)-6-(2-propan-2-yl-pyrazol-3-yl)-pyridine-4-carboxamide] yielded a melting point of 164 °C. This compound showed a Kb at human EAAT3 of 3100 nM.

`CC(C)n1nccc1-c1cc(C(=O)NC(C)(C)C)cc(-c2ccc(Cl)cc2)n1` [Example 7, N-tert-Butyl-2-(4-chlorophenyl)-6-(2-propan-2-yl-pyrazol-3-yl)-pyridine-4-carboxamide] came in with a melting point of 207 °C. At human EAAT3, this compound registered a Kb of 370 nM.

`CC(C)(CO)NC(=O)c1cc(-c2ccc(F)cc2)nc(-c2ccnn2C(C)(C)C)c1` [Example 16, 2-(2-tert-Butyl-pyrazol-3-yl)-6-(4-fluorophenyl)-N-(1-hydroxy-2-methyl-propan-2-yl)-pyridine-4-carboxamide] showed a melting point of 142 °C. Also, at human EAAT3, the Kb came out at 80 nM.

Take `CC(C)n1nccc1-c1cc(C(=O)NC(C)(C)C)cc(-c2ccccc2)n1` [Example 28, N-tert-Butyl-2-phenyl-6-(2-propan-2-yl-pyrazol-3-yl)-pyridine-4-carboxamide]: the melting point stood at 197 °C. At human EAAT3, this compound returned a Kb of 310 nM.

In the case of `CC(C)n1nccc1-c1cc(C(=O)NC(C)(C)C(F)(F)F)cc(-c2ccc(F)cc2)n1` [Example 44, 2-(4-Fluorophenyl)-6-(2-propan-2-yl-pyrazol-3-yl)-N-(1,1,1-trifluoro-2-methyl-propan-2-yl)-pyridine-4-carboxamide], the melting point was determined as 186 °C. On human EAAT3, this compound came in with a Kb of 560 nM.

In turn, `CC(C)(C#N)NC(=O)c1cc(-c2ccc(Cl)cc2)nc(-c2ccnn2C(C)(C)C)c1` [Example 56, 2-(2-tert-Butyl-pyrazol-3-yl)-6-(4-chlorophenyl)-N-(2-cyano-propan-2-yl)-pyridine-4-carboxamide] registered a melting point of 230 °C. The Kb at human EAAT3 came to 210 nM.

Turning to `CCC(C)(C)NC(=O)c1cc(-c2ccc(F)cc2)nc(-c2ccnn2C(C)(C)C)c1` [Example 10, 2-(2-tert-Butylpyrazol-3-yl)-6-(4-fluorophenyl)-N-(2-methylbutan-2-yl)-pyridine-4-carboxamide], the melting point was found to be 154 °C. At human EAAT3, this compound gave a Kb of 140 nM.

`CC(C)(C)NC(=O)c1cc(-c2ccc(F)c(F)c2)nc(-c2ccnn2C(C)(C)C)c1` [Example 19, N-tert-Butyl-2-(2-tert-butyl-pyrazol-3-yl)-6-(3,4-difluoro-phenyl)-pyridine-4-carboxamide] returned a melting point of 216 °C. Moreover, the Kb on human EAAT3 came to 50 nM.

`CC(C)(C)NC(=O)c1cc(-c2ccc(Cl)cc2)nc(-c2ccnn2C(C)(C)C)c1` [Example 4, N-tert-Butyl-2-(2-tert-butyl-pyrazol-3-yl)-6-(4-chlorophenyl)-pyridine-4-carboxamide] gave a melting point of 204 °C. In addition, the Kb on human EAAT3 is 160 nM.

The compound `CC(C)(C)NC(=O)c1cc(-c2ccc(F)cc2)nc(-c2ccnn2C2CC2)c1` [Example 48, N-tert-Butyl-2-(2-cyclopropyl-pyrazol-3-yl)-6-(4-fluorophenyl)-pyridine-4-carboxamide] displayed a melting point of 175 °C. Also, the Kb at human EAAT3 amounted to 240 nM.

Consider `CC(C)n1nccc1-c1cc(C(=O)NC(C)(C)CO)cc(-c2ccc(Cl)cc2)n1` [Example 51, 2-(4-Chlorophenyl)-N-(1-hydroxy-2-methylpropan-2-yl)-6-(2-propan-2-yl-pyrazol-3-yl)-pyridine-4-carboxamide], for which the melting point was 165 °C. Moreover, at human EAAT3, the Kb worked out at 340 nM.

For `Cn1nccc1-c1cc(C(=O)NC(C)(C)C)cc(-c2ccc(F)cc2)n1` [Example 2, N-tert-Butyl-2-(4-fluorophenyl)-6-(2-methyl-pyrazol-3-yl)-pyridine-4-carboxamide], the melting point came out at 161 °C. On human EAAT3, this compound showed a Kb of 560 nM.

On to `CC1(NC(=O)c2cc(-c3ccc(F)cc3)nc(-c3ccnn3C(C)(C)C)c2)CCS(=O)(=O)C1` (racemic) [Example 9, (RS)-2-(2-tert-Butylpyrazol-3-yl)-6-(4-fluorophenyl)-N-(3-methyl-1,1-dioxothiolan-3-yl)-pyridine-4-carboxamide], for which the melting point was found to be 192 °C. For the same compound, the Kb on human EAAT3 is 190 nM.

Compound `CC(C)n1nccc1-c1cc(C(=O)NC(C)(C)C2CC2)cc(-c2ccc(F)cc2)n1` [Example 46, N-(2-Cyclopropyl-propan-2-yl)-2-(4-fluorophenyl)-6-(2-propan-2-yl-pyrazol-3-yl)-pyridine-4-carboxamide] displayed a melting point of 173 °C. For the same compound, at human EAAT3, the Kb stood at 550 nM.

With `CC(C)(NC(=O)c1cc(-c2ccc(F)cc2)nc(-c2ccnn2C(C)(C)C)c1)C1CC1` [Example 15, 2-(2-tert-Butyl-pyrazol-3-yl)-N-(2-cyclopropyl-propan-2-yl)-6-(4-fluorophenyl)-pyridine-4-carboxamide], the melting point is 169 °C. This compound also showed a Kb on human EAAT3 of 135 nM.

`CC(C)(C)NC(=O)c1cc(-c2ccc(Cl)c(F)c2)nc(-c2ccnn2C(C)(C)C)c1` [Example 24, N-tert-Butyl-2-(2-tert-butyl-pyrazol-3-yl)-6-(4-chloro-3-fluoro-phenyl)-pyridine-4-carboxamide] came in with a melting point of 208 °C. The same compound yielded a Kb on human EAAT3 of 110 nM.

The values above are taken from patent US10457663B2, “Pyrazol-pyridine derivatives” (Hoffmann-La Roche Inc., priority 2016, dated 2019).
